Measured values reported in patent US20130317037A1, “METHOD OF ADMINISTRATION AND TREATMENT” (GlaxoSmithKline Intellectual Property Development Limited, priority 2010, published 2013).
Where two headings read alike, the source gives them in different places.

Assays:
Format in all cases: cell-based, human
DU4475 = test: Panel A proliferation assay (CellTiter-Glo); HER2 2 copies, KRAS WT, PIK3CA WT; conditions: for IC50: Homo sapiens, DU-4475
Method: (§1) A total of 15 breast cancer cell lines were used in this study. […] Cells of each line were seeded into a 384-well microtiter plate at two cell densities. Low density ranges were 300-1800 cells/well, and a high density was 600 to 3600 cells/well). The plating density was determined by the rate of proliferation of the cell line in the absence of any inhibitor and varied amongst cell lines. High plating densities were double that of low density. Each cell density was plated in triplicate. […] In addition, there were 24 wells of dimethyl sulfoxide (DMSO)-treated controls at each density. After seeding, the cells were incubated at 37° C. in 5% CO2 for 24 hours. […] After a 72 h incubation, an equal volume of the CellTiter-Glo (CellTiter-Glo Luminescent Cell Viability Assay, Promega, Madison, Wis.) to that of the cell culture medium was added into each well of the plate. After the contents were mixed to induce cell lysis and stabilization, cell luminescence was recorded using a SpectraMax M5^e (Molecular Devices, Sunnyvale, Calif., USA)
(§2) Specifically, the midpoint of the growth window (the gIC50) falls half way between the number of cells at the time of compound addition (T=0) and the growth of control cells treated with DMSO. The gIC50 value serves as a metric for measuring the inhibition of proliferation in cancer cells. The curves for each seeding density for each cell line were manually inspected for both data quality and appropriateness of curve fitting. Where the starting data were poor the curve and subsequent gIC50s were excluded from further analysis. Cell line seedings were considered of poor quality when the r^2 value of the fitted curve was <0.75. Finally, where data quality permits, the Ymin values (defined as the maximum growth inhibition relative to the cell density at Time-zero) were calculated as a measure of cytotoxicity where data were of reasonable quality.

NCI/ADR-RES = test: as above; conditions: for IC50: Homo sapiens
Method: as §1, §2

MDA-MB-468 = test: as above; conditions: for IC50: Homo sapiens
Method: as §1, §2

BT-20 = test: Panel A proliferation assay (CellTiter-Glo); HER2 2 copies, KRAS WT, PIK3CA p.P539R; conditions: for IC50: Homo sapiens
Method: A total of 15 breast cancer cell lines were used in this study. These cells were cultured in RPMI-1640 and supplemented with 5% or 10% fetal bovine serum, 2 mM GlutaMAX™ and 1 mM sodium pyruvate, or in growth medium recommended by the suppliers [American Type Culture Collection, Manassas, Va., USA; Developmental Therapeutics Program, National Cancer Institute, Bethesda, Md., USA; German Collection of Microorganisms and Cell Cultures (DSMZ), Braunschweig, Germany; European Collection of Cell Cultures (ECACC), Porton Down, UK]. Cells of each line were seeded into a 384-well microtiter plate at two cell densities. Low density ranges were 300-1800 cells/well, and a high density was 600 to 3600 cells/well). The plating density was determined by the rate of proliferation of the cell line in the absence of any inhibitor and varied amongst cell lines. High plating densities were double that of low density. Each cell density was plated in triplicate. In total there were 30 wells to be treated with increasing concentrations of Compound B for each cell line at each density. In addition, there were 24 wells of dimethyl sulfoxide (DMSO)-treated controls at each density. After seeding, the cells were incubated at 37° C. in 5% CO2 for 24 hours. Subsequently, Compound B was added to each cell line with 10 concentrations. The dosing solution of Compound B was first prepared in DMSO at a master stock concentration of 10 mM. […] were then made of the stock solution to give a range of working stock concentrations; 10.00 mM, 3.164 mM, 1.001 mM, 316.9 μM, 100.3 μM, 31.74 μM, 10.04 μM, 3.178 μM, 1.006 μM and 318.3 nM. The working stock concentrations of Compound B were then dispensed into the seeded cancer cell lines using a Biomek FX liquid handler to give final treatment concentrations of 0.1% of the stock concentration. A similar volume of DMSO without Compound B was dispensed into the 24 control wells of each seeding density at a concentration of 0.1%. Also, a zero-time plate prepared with a similar cell seeding was read for each cell line at each seeding density immediately after the addition of the DMSO control. After a 72 h incubation, an equal volume of the CellTiter-Glo (CellTiter-Glo Luminescent Cell Viability Assay, Promega, Madison, Wis.) to that of the cell culture medium was added into each well of the plate. After the contents were mixed to induce cell lysis and stabilization, cell luminescence was recorded using a SpectraMax M5^e (Molecular Devices, Sunnyvale, Calif., USA)
The luminescence of Compound B treated cells was compared relative to the average of the 24 DMSO-treated control wells at each cell density for every concentration of Compound B for all triplicate wells. The percent intensity values were used in model 205 of XLfit in Microsoft Excel to calculate gIC50s for the low and high seeding density (a 4 parameter logistical fit). Specifically, the midpoint of the growth window (the gIC50) falls half way between the number of cells at the time of compound addition (T=0) and the growth of control cells treated with DMSO. The gIC50 value serves as a metric for measuring the inhibition of proliferation in cancer cells. […] Finally, where data quality permits, the Ymin values (defined as the maximum growth inhibition relative to the cell density at Time-zero) were calculated as a measure of cytotoxicity where data were of reasonable quality.

For `COc1ncc(-c2ccc3nccc(-c4ccnnc4)c3c2)cc1NS(=O)(=O)c1ccc(F)cc1F` [Compound B, 2,4-difluoro-N-{2-(methyloxy)-5-[4-(4-pyridazinyl)-6-quinolinyl]-3-pyridinyl}benzenesulfonamide], the “High Density Y-Min” value (DU4475; DU4475, high density, % of cells at T = 0) was −8.4%, the “Low Density Y-Min” value (DU4475; DU4475, low density, % of cells at T = 0) was 1.2% and the IC50 (DU4475; DU4475, high seeding density, 72 h, read-out: High Density gIC50) was 20.6 nM. For the same compound, the IC50 (DU4475; DU4475, low seeding density, 72 h, read-out: Low Density gIC50) was 3.6 nM, the IC50 (DU4475; DU4475, mean of low and high density, read-out: Mean gIC50) was 12.1 nM and the IC50 (NCI/ADR-RES; high seeding density, 72 h, read-out: High Density gIC50) was 25.4 nM. For the same compound, the IC50 (NCI/ADR-RES; low seeding density, 72 h, read-out: Low Density gIC50) was 51.6 nM, the IC50 (NCI/ADR-RES; mean of low and high density, read-out: Mean gIC50) was 38.5 nM and the “High Density Y-Min” value (NCI/ADR-RES; high density, % of cells at T = 0) was 98.9%. For the same compound, the “Low Density Y-Min” value (NCI/ADR-RES; low density, % of cells at T = 0) was 518.6%, the IC50 (MDA-MB-468; MDA-MB-468, high seeding density, 72 h, read-out: High Density gIC50) was 32.1 nM and the IC50 (MDA-MB-468; MDA-MB-468, low seeding density, 72 h, read-out: Low Density gIC50) was 37.2 nM. The IC50 (MDA-MB-468; MDA-MB-468, mean of low and high density, read-out: Mean gIC50) was 34.9 nM, the “High Density Y-Min” value (MDA-MB-468; MDA-MB-468, high density, % of cells at T = 0) was 35.5% and the “Low Density Y-Min” value (MDA-MB-468; MDA-MB-468, low density, % of cells at T = 0) was 27.9%. The “High Density Y-Min” value (BT-20; BT-20, high density, % of cells at T = 0) was 20.7%, the “Low Density Y-Min” value (BT-20; BT-20, low density, % of cells at T = 0) was 10.7% and the IC50 (BT-20; BT-20, high seeding density, 72 h, read-out: High Density gIC50) was 7.8 nM. It also gave an IC50 (BT-20; BT-20, low seeding density, 72 h, read-out: Low Density gIC50) of 6.3 nM and an IC50 (BT-20; BT-20, mean of low and high density, read-out: Mean gIC50) of 7.05 nM.
